The record followed here is ChEMBL document CHEMBL1765054 (J Med Chem, 2011).

Common to all, as to assay type: ADME, organism-based
The test system of one data set is Mus musculus. Description: Bioavailability in C57BL/6 mouse at 10 mg/kg. To be noted: in vivo.
The nature of data set [1]: Cmax in C57BL/6 mouse at 1 mg/kg, iv. Set-up: dose 1 mg/kg, route intravenous. The following applies: in vivo.
Data set [2] can be described thus: AUC in C57BL/6 mouse at 10 mg/kg, po. To be noted: plasma. Set-up: dose 10 mg/kg, route oral.
A short description of data set [3]: Cmax in C57BL/6 mouse at 10 mg/kg, po. Set-up: dose 10 mg/kg, route oral. To be noted: in vivo.
The nature of data set [4]: Volume of distribution at steady state in C57BL/6 mouse at 1 mg/kg, iv. The following applies: in vivo, read-out: Vdss. More on the design: dose 1 mg/kg, route intravenous.
Data set [5] can be described thus: Tmax in C57BL/6 mouse at 10 mg/kg, po. Set-up: dose 10 mg/kg, route oral. The following applies: in vivo.

As a reminder, the Cmax is the maximum level reached in the sampled fluid or tissue. Usually AUC stands for concentration integrated over time. A high value points to more exposure. Turning to `Nc1ccc(-c2ccc3ncc4ccc(=O)n(-c5cccc(C(F)(F)F)c5)c4c3c2)cn1`, in the data set on Mus musculus, the F was determined as 51%. Also, the values for the Cmax in data set [1] and in data set [3] were 1540 ng/mL and 3970 ng/mL, respectively. The compound further registered an AUC in data set [2] of 4310 ng·h/mL.
Usually Tmax stands for the time from dosing to the highest level. Turning to `O=c1ccc2cnc3ccc(-c4cn[nH]c4)cc3c2n1-c1ccc(F)c(C(F)(F)F)c1`, the Vd in data set [4] was found to be 2.42 L/kg. The same compound had a F in the data set with Mus musculus of 19.2%. The same compound gave an AUC in data set [2] of 755 ng·h/mL. For the same compound, the Tmax in data set [5] was found to be 30 min. For the same compound, the concentration in data set [3] peaked (Cmax) at 430 ng/mL.
As for `O=c1ccc2cnc3ccc(-c4cnc5[nH]ccc5c4)cc3c2n1-c1ccc(F)c(C(F)(F)F)c1`, the Vd in data set [4] turned out to be 1.3 L/kg. The compound further registered a F with Mus musculus of 4.2%. For the same compound, the Cmax amounted to 1640 ng/mL in data set [1] and 98 ng/mL in data set [3]. This compound also returned an AUC in data set [2] of 352 ng·h/mL. Further, in data set [5], the Tmax worked out at 60 min.
Take `Cc1cc(-n2c(=O)ccc3cnc4ccc(-c5cn[nH]c5)cc4c32)ccc1F`: the Vd in data set [4] came to 1.16 L/kg. In addition, the F in the data set on Mus musculus came out at 21.6%. Besides, the Cmax in data set [1] came out at 1040 ng/mL; in data set [3], 853 ng/mL. Moreover, the area under the curve (AUC) in data set [2] was 2410 ng·h/mL. In addition, in data set [5], the Tmax is 30 min.
Turning to `Cc1cc(-n2c(=O)ccc3cnc4ccc(-c5cnn(C)c5)cc4c32)ccc1F`, the Vd in data set [4] is 1.08 L/kg. The compound further displayed a F in the data set on Mus musculus of 28%. For the same compound, in data set [2], the AUC came to 2070 ng·h/mL. The Tmax in data set [5] worked out at 30 min. In data set [3], this compound came in with a Cmax of 1040 ng/mL.
